Experimental findings from US10945978B2, “Treatment and diagnosis of melanoma” (The Rockefeller University, priority 2012, dated 2021) are described below.

Where a name gives a salt, the structure may show the parent alone.

One experiment relates to DNAJA4. Put plainly: DNAJA4 expression by qRT-PCR in parental MeWo cells. It is filed as cell-based, human. Conditions: GW3965 48 hours. How it is done: Total RNA was extracted from various cell lines using the miRvana kit (AM1560, Applied Biosystems, Austin, Tex.). The expression levels of mature miRNAs were quantified using the Taqman miRNA expression assay (4427975-0002228, Applied Biosystems). RNU44 was used as an endogenous control for normalization. For mRNA expression analyses, 600 ng of total RNA was reverse transcribed using the cDNA First-Strand Synthesis Kit (18080-051, Invitrogen), and roughly 200 ng of the resulting cDNA was then mixed with SYBR green PCR Master Mix (4309155, Applied Biosystems) and the appropriate primers. Each reaction was performed in quadruplicate, and mRNA expression was quantified by performing real-time PCR amplification using an ABI Prism 7900HT Real-Time PCR System (Applied Biosystems). GAPDH was used as an endogenous control for normalization. The following primers were used: […]

Experiment [1] has as its system B16F10 parental and DTIC-resistant cells. The experiment in a line: Tumor growth by DTIC-sensitive and DTIC-resistant B16F10 cells. It is filed as in vivo, mouse. Conditions: chow supplemented with GW3965 100 mg/kg. The procedure:
First, the cells were treated with 500 μg/mL DTIC for one week. Following this initial DTIC treatment, the remaining (˜10%) viable cells were allowed to recover for one week, after which 750 rag/mL of DTIC was added to the cell media for 5 days. Subsequent to this high-dose treatment, the cells were allowed to recover in the presence of low-dose DTIC (100 jag/mL) for one week. The cells were then continuously cultured in cell media containing 200 rag/mL DTIC for at least one month prior to grafting the cells into mice. DTIC was added to fresh cancer cell media every 3 days.

In experiment [2] the test system is HT-144 melanoma line, SK-Mel-334.2 primary melanoma line. The experiment in a line: Lung metastatic colonization by HT-144 and SK-Mel-334.2 cells in NOD scid mice. It is filed as in vivo, human. How it is done:
Melanoma cells used for in vivo metastasis assays were transduced with a stably expressed retroviral construct encoding a luciferase reporter gene (Ponomarev et al., 2004), allowing us to monitor the in vivo progression of melanoma cells by bioluminescence imaging. The following numbers of melanoma cells, resuspended in 100 μL of PBS, were injected intravenously via the tail-vein: 4×10^4 MeWo cells, 2.5×10^5 HT-144 cells, 2×10^5 SK-Mel-334.2 cells, 5×10^4B16F10 cells, and 1×10^5 YUMM cells. The MeWo, HT-144, and SK-Mel-334.2 cells were injected into 6-8 week-old sex-matched NOD scid mice, while the B16F10 and YUMM cells were injected into 6-8 week-old sex-matched C57BL/6 mice. In all experiments assessing at the effects of GW3965 on metastasis formation, mice were pre-treated on a control diet or a GW3965-supplemented diet (20 mg/kg) for 10 days. To assess the effect of GW3965 treatment on brain metastasis, 1×10^5 MeWo brain-metastatic derivatives were injected intracardially into athymic nude mice. Immediately following injection, mice were randomly assigned to a control diet or GW3965-supplemented diet (100 mg/kg). […]

Experiment [3] deals with DTIC-resistant MeWo human melanoma cells. The note with it: oral, GW3965 diet 100 mg/kg.
Procedure: Following growth of tumors to 5-10 mm^3 in volume, mice were blindedly assigned to the following treatment groups: (1) control diet; (2) control diet+DTIC (50 mg/kg); (3) GW3965-supplemented diet (100 mg/kg). […] DTIC was administered daily, as described above, in cycles consisting of 5 consecutive daily treatments interspersed by 2-day off-treatment intervals. Tumor growth was measured twice a week.
The subject of experiment [4] is VEGF-induced endothelial recruitment. The experiment in a line: In vivo matrigel plug assay. On the set-up: species or system mouse. Conditions: VEGF 400 ng/mL + recombinant ApoE3 10 μg/mL. The procedure:
10 μg/mL recombinant human ApoE3 (4696, BioVision), 10 μg/mL BSA (A2153, Sigma Aldrich), or 400 ng/ml VEGF were mixed with matrigel (356231, BD Biosciences) as indicated. 400 μL of matrigel containing the indicated recombinant proteins were injected subcutaneously just above the ventral flank of immunocompromised NOD-SCID mice. Plugs were extracted on day 3 post-injection and fixed in 4% paraformaldehyde for 48 hours. Plugs were then paraffin-embedded and sectioned at 5-μm-thick increments. Plug cross-sectional sections were immunohistochemically stained using a primary antibody against the mouse endothelial antigen MECA-32 (Developmental Studies Hybridoma Bank, The University of Iowa, IA), detected by peroxidase-conjugated secondary antibody, and subsequently visualized by DAB oxidization. To quantify the extent of endothelial cell invasion into each matrigel plug, the number of endothelial cells was counted in 4-5 random fields for each plug, and the average number of endothelial cells per given plug area was calculated.

The subject of the next experiment is HUVEC's. The experiment in a line: Endothelial migration and chemotaxis assays (cancer cell-free). Details: species or system human. Conditions: trans-well assay and gradient-based chemotactic assay. The procedure: Serum-starved HUVEC's were pulsed with Cell Tracker Red CMTPX dye for 45 minutes and seeded into HTS Fluoroblock trans-well inserts at a concentration of 1×10^5 HUVEC's in 0.5 mL starvation media per each insert. The assay was allowed to proceed for 16-18 hours at 37° C., and the inserts were processed and analyzed as described above (See Matrigel Invasion Assay).
HUVEC's were serum-starved in 0.2% FBS EGM-2 media for 16 hours and labeled with Cell Tracker Red CMTPX dye for 45 minutes. Meanwhile, the indicated amounts (1-5 jag) of recombinant human ApoE3 or BSA were mixed with 250 μL of matrigel (356231, BD Biosciences) and allowed to solidify at the bottom of a 24-well plate for 30 min. 250 μL of HUVEC EGM-2 media containing 0.2% FBS was then added to each matrigel-coated well, and […] HTS Fluoroblock inserts were fitted into each well. 1×10^5 HUVEC's, resuspended in 0.5 mL of starvation media, were seeded into each insert and allowed to migrate along the matrigel gradient for 16-18 hours at 37° C. Upon completion of the assay, the inserts were mounted on slides and analyzed as described above (See Matrigel Invasion Assay).

In another experiment the test system is endothelial cells. Put plainly: Endothelial recruitment by breast, renal cell and pancreatic cancer cells with ApoE. It is filed as cell-based.

Regarding `O=C(O)Cc1cccc(OCCCN(Cc2cccc(C(F)(F)F)c2Cl)CC(c2ccccc2)c2ccccc2)c1` [GW3965 2, 3-[3-[N-(2-Chloro-3-trifluoromethylbenzyl)-(2,2-diphenylethyl)amino]propyloxy] phenylacetic acid hydrochloride], the “expression of DNAJA4” value with DNAJA4 was “increased”. In addition, in experiment [1], the “suppression of tumor growth by the DTIC-resistant B16F10 clone” value was “more than 70%”. The metastatic colonization result in experiment [2] (HT-144 melanoma line) and in experiment [2] (SK-Mel-334.2 primary melanoma line) was “suppressed” in each case. Besides, the “growth of in vivo-derived DTIC-resistant human melanoma tumors” value in experiment [3] is listed as “strongly inhibited”.
For the compound “recombinant human ApoE: recombinant human ApoE3 (4696, BioVision)”, in experiment [4], the “suppression of VEGF-induced endothelial recruitment into subcutaneous matrigel plugs” value is reported as “greater than 40 fold”. In addition, the endothelial migration result in the experiment on HUVEC's is “sufficient to inhibit”. In the experiment on endothelial cells, the endothelial recruitment entry is listed as “inhibited”.
